A value given as a limit tells only on which side of the number the result lay.

T1 sequence (P45983 whole entry): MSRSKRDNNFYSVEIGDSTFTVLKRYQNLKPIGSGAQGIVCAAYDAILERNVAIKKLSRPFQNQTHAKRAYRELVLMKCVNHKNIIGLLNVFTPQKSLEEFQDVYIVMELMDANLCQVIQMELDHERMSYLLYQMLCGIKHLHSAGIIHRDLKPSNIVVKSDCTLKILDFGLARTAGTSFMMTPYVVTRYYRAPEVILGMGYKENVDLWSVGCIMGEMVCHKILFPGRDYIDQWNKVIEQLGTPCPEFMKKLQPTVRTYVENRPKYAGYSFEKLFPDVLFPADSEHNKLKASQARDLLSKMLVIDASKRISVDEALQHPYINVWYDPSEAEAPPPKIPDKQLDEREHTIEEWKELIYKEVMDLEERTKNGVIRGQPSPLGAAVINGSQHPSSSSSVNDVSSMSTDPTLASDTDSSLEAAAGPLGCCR

The first test concerns the target T1, JNK1 (Homo sapiens, UniProt P45983).
T1 construct: purchased Carna Biosciences
Briefly: JNK1 biochemical assays (one or more of: time resolved fluorescence, Z'-LYTE Cascade, radioactive). The note with it: Table 2; JNK1 IC50 activity level; read-out: Act. Level.
Take `CC(C)Nc1nc(N[C@H]2CCc3ncccc3C2)ncc1C(N)=O` [Example B-80, (S)-4-(isopropylamino)-2-(5,6,7,8-tetrahydroquinolin-6-ylamino)pyrimidine-5-carboxamide]: the IC50 was < 200 nM.

Take `NC(=O)c1cnc(NC2CCCC2)nc1Nc1ccccc1` [Example B-44, 2-(cyclopentylamino)-4-(phenylamino)pyrimidine-5-carboxamide]: the IC50 was < 200 nM.

`COCCNc1ncc(C(N)=O)c(Nc2ccccc2)n1` [Example B-69, 2-(2-methoxyethylamino)-4-(phenylamino)pyrimidine-5-carboxamide]: the IC50 was in the range of 800 to 1000 nM.

Regarding `NC(=O)c1cnc(N[C@@H]2CCc3ncccc3C2)nc1N[C@@H]1CCCC[C@H](O)C1` [Example B-98, 4-((1R,3S)-3-hydroxycycloheptylamino)-2-((R)-5,6,7,8-tetrahydroquinolin-6-ylamino)pyrimidine-5-carboxamide], the IC50 was < 200 nM.

The same test, now with this note: Table 3; JNK1 IC50 activity level; read-out: Act. Level.
On to `N#Cc1cnc(N[C@H]2CC[C@H](OC(F)F)CC2)nc1N[C@@H]1CCC[C@H](O)C1` [Example C-6, 2-((1r,4R)-4-(difluoromethoxy)cyclohexylamino)-4-((1R,3S)-3-hydroxycyclohexylamino) pyrimidine-5-carbonitrile], for which the IC50 is < 200 nM.

Turning to `CN(C)C(=O)[C@H]1CC[C@H](Nc2ncc(C#N)c(N[C@@H]3CCC[C@](C)(O)C3)n2)CC1` [Example C-43, (1R,4r)-4-(5-cyano-4-((1R,3S)-3-hydroxy-3-methylcyclohexylamino)pyrimidin-2-ylamino)-N,N-dimethylcyclohexanecarboxamide], the IC50 is < 200 nM.

Staying with this test, now noted: one or more of the JNK1 biochemical assays; read-out: Act. Level (JNK1 IC50 activity level).
As to `CO[C@H]1CC[C@H](Nc2ncc(C(N)=O)c(N[C@@H](C)C3CCC3)n2)CC1` [Example 295, 4-((S)-1-cyclobutylethylamino)-2-((1r,4S)-4-methoxycyclohexylamino)pyrimidine-5-carboxamide], the IC50 is < 200 nM.

In the case of `CC[C@H](Nc1nc(N[C@H]2CC[C@H](OC)CC2)ncc1C(N)=O)C1CC1` [Example 372, 4-((S)-1-cyclopropylpropylamino)-2-((1r,4S)-4-methoxycyclohexylamino)pyrimidine-5-carboxamide], the IC50 was < 200 nM.

For `CC1(C)CCC(Nc2nc(NC34CC(C3)C4)ncc2C(N)=O)CC1O` (stereo not drawn) [Example 432, 2-(bicyclo[1.1.1]pentan-1-ylamino)-4-(3-hydroxy-4,4-dimethylcyclohexylamino)pyrimidine-5-carboxamide], the IC50 is < 200 nM.

Consider `CC(C)(C)Nc1ncc(C(N)=O)c(N[C@@H]2CCC[C@H]2CO)n1` [Example 330, 2-(tert-butylamino)-4-((1R,2R)-2-(hydroxymethyl)cyclopentylamino)pyrimidine-5-carboxamide], for which the IC50 is < 200 nM.

Turning to `CO[C@H]1CC[C@H](Nc2ncc(C(N)=O)c(NC3(C)CCCC3)n2)CC1` [Example 473], the IC50 was < 200 nM.

The test is the same for the next values; noted with them: tested in one or more of the JNK1 biochemical assays; read-out: Act. Level (JNK1 biochemical assay IC50 activity level).
For `CC[C@]1(O)CCC[C@@H](Nc2nc(N[C@H]3CC[C@H](OC)CC3)ncc2C(N)=O)C1` [Example A-161, 4-((1R,3S)-3-ethyl-3-hydroxycyclohexylamino)-2-((1r,4R)-4-methoxycyclohexylamino)pyrimidine-5-carboxamide], the IC50 was < 200 nM.

As to `CO[C@H]1CC[C@H](Nc2ncc(C(N)=O)c(N[C@H]3CC[C@H](NC(C)=O)CC3)n2)CC1` [Example A-38, 4-((1r,4r)-4-acetamidocyclohexylamino)-2-((1r,4r)-4-methoxycyclohexylamino)pyrimidine-5-carboxamide], the IC50 was < 200 nM.

Regarding `NC(=O)c1cnc(NC2CCOCC2)nc1N[C@H]1CC[C@@H](C(=O)N2CCCC2)CC1` [Example A-112, 4-((1s,4s)-4-(pyrrolidine-1-carbonyl)cyclohexylamino)-2-(tetrahydro-2H-pyran-4-ylamino)pyrimidine-5-carboxamide], the IC50 lay in the range of 800 to 1000 nM.

Consider `CC(C)Nc1nc(N[C@H]2CC[C@H](C(=O)N(C)C)CC2)ncc1C(N)=O` [Example A-10, 2-((1r,4r)-4-(dimethylcarbamoyl)cyclohexylamino)-4-(isopropylamino)pyrimidine-5-carboxamide], for which the IC50 is < 200 nM.

(Values after patent publication US12129237B2, “Substituted diaminocarboxamide and diaminocarbonitrile pyrimidines, compositions thereof, and methods of treatment therewith” (SIGNAL PHARMACEUTICALS, LLC, priority 2011, dated 2024).)
